Experimental data as given in patent US20140243416A1, “Topical Antiandrogen Therapy for the Treatment of Becker's Nevus” (priority 2013, published 2014).

Tests used:
[1] = topical application; cited from earlier work
[2] = system: Becker's nevus; assay: Topical flutamide applied to a Becker's nevus (Example 1, single patient); assay type: in vivo, person; conditions: topical 4% solution, twice daily
Text: FIG. 1a (left) depicts a person with a Becker's nevus before the antiandrogen treatment as described in example 1. FIG. 1b (right) depicts a person after treatment with a topical antiandrogen, specifically topical flutamide. […] A topical 4% solution of flutamide was applied twice daily to a Becker's nevus. […] (FIG. 1)

With `CC(C)C(=O)Nc1ccc([N+](=O)[O-])c(C(F)(F)F)c1` [flutamide, methyl-N-[4-nitro-3-(trifluoromethyl)phenyl]-propanamide] as the molecule, how does the “absorption into the skin and systemic absorption” value [1] read?
Its value is “systemic absorption is measurable”.

What about the “cutaneous or systemic adverse effects” value [2] of the same molecule?
Its value is “No cutaneous or systemic adverse effects”.

What about the “pigmentary change in the normal skin surrounding the Becker's nevus” value ([2]; during treatment) of the same molecule?
Its value is “no pigmentary change”.

And the menstrual irregularities ([2]; patient-reported)?
The menstrual irregularities was “denied any menstrual irregularities”.
